Values of other authors, collected in patent publication US12257323B2, “Modified wound dressings” (CONVATEC TECHNOLOGIES INC., priority 2016, dated 2025).

Assays:
Conditions in all cases: cited from earlier work
MMP-3 = MMP-3 (Homo sapiens, UniProt P08254)
MMP-8 = MMP-8 (Homo sapiens, UniProt P22894)
MMP-1 = biological target: T1, MMP-1 (Homo sapiens, UniProt P03956)
T1 sequence (P03956 100-469): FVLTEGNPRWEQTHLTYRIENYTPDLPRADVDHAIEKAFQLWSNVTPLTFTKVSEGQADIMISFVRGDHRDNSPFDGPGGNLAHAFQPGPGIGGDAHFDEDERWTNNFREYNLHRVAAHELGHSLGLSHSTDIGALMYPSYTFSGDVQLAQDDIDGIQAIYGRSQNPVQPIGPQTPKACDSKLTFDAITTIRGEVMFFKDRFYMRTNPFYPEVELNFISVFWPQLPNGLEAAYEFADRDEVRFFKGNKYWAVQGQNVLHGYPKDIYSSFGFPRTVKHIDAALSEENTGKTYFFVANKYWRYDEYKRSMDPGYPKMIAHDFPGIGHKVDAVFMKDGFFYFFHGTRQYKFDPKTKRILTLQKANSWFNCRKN

MMP-7 = biological target: T2, MMP-7 (Homo sapiens, UniProt P09237)
T2 sequence (P09237 95-267): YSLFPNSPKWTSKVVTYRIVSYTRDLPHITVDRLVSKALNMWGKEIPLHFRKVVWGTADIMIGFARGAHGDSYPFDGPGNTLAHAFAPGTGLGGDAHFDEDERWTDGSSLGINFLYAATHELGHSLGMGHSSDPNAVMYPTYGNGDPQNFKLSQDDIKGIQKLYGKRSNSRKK

MMP-9 = MMP-9 (Homo sapiens, UniProt P14780)
MMP-2 = biological target: T3, MMP-2 (Homo sapiens, UniProt P08253)
T3 sequence (P08253 110-660): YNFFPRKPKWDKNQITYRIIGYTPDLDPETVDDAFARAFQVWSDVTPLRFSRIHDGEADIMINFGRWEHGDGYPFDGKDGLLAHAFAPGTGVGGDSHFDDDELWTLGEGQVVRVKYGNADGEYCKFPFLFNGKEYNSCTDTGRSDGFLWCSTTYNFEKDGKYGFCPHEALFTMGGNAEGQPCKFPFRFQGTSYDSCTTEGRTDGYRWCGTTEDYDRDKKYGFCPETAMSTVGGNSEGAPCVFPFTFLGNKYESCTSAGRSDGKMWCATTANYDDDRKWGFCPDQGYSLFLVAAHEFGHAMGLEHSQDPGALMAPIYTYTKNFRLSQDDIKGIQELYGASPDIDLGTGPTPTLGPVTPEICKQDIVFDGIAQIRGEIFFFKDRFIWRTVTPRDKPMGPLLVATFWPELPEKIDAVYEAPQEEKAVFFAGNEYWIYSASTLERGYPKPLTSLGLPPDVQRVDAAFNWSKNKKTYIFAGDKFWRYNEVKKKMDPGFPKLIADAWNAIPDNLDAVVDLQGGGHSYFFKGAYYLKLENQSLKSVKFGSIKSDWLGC

MMP-9, sequence (P14780 94-707): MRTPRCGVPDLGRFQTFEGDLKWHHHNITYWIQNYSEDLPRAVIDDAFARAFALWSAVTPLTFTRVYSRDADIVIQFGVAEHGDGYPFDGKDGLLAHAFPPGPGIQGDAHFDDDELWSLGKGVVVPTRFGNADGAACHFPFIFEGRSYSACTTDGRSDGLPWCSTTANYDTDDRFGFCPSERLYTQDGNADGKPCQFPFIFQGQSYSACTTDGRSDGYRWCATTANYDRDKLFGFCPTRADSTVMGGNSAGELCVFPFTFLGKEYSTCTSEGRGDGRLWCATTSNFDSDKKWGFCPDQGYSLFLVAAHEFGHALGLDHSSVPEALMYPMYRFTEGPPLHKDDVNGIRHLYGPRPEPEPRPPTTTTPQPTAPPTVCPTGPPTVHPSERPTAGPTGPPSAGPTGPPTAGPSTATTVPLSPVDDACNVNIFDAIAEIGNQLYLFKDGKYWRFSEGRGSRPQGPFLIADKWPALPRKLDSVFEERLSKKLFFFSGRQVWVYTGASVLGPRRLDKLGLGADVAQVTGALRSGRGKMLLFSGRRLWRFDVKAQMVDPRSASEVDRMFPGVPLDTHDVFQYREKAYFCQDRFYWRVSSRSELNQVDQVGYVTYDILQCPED
MMP-3, sequence (P08254 100-477): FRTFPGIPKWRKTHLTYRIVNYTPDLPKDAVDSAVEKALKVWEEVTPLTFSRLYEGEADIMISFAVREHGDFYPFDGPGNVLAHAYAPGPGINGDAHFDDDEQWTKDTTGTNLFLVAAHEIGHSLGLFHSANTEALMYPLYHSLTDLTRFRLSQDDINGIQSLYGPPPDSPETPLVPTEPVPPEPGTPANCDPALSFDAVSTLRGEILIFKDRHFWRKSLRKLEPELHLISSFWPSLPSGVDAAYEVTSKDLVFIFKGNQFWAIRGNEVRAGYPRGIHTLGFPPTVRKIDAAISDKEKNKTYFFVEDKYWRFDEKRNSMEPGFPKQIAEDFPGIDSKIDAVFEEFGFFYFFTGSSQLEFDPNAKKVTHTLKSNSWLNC
MMP-8, sequence (P22894 101-467): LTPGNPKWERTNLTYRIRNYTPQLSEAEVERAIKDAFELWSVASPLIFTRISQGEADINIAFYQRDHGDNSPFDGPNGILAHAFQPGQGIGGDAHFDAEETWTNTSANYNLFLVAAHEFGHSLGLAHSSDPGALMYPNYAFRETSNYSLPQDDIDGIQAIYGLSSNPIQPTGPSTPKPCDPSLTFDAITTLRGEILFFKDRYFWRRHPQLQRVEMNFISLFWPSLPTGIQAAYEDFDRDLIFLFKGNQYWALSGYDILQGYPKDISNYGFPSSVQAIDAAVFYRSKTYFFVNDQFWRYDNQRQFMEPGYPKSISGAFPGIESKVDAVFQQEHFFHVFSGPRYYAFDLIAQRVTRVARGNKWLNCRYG

| Substance | Relative rate MMP-3 (MMP-3) | Relative rate MMP-8 (MMP-8) | Relative rate MMP-1 (MMP-1) | Relative rate MMP-7 (MMP-7) | Relative rate MMP-9 (MMP-9) | Relative rate MMP-2 (MMP-2) |
| --- | --- | --- | --- | --- | --- | --- |
| Gly-Pro-Gln-Gly#Ile-Ala-Gly-Thr | 72 | 145 | 160 | 100 | 160 | 59 |
| Gly-Pro-Gln-Gly#Ile-Ala-Met-Gln | 810 | 34 | 130 | 450 | 35 | 40 |
| Gly-Pro-Gln-Gly#Ile-Ala-Ser-Gln | 230 | 58 | 91 | 150 | 130 | 320 |
| Gly-Pro-Gln-Gly#Ile-Ala-Val-Gln | 170 | 57 | 100 | 170 | 49 | 26 |
| Gly-Pro-Gln-Gly#Ile-Glu-Gly-Gln | 58 | 59 | 35 | 86 | 130 | 85 |
| Gly-Pro-Gln-Gly#Ile-Hyp-Gly-Gln | 42 | 1.5 | 7.3 | 8.0 | 11 | 32 |
| Gly-Pro-Gln-Gly#Ile-Leu-Gly-Gln | 280 | 400 | 430 | 250 | 240 | 400 |
| Gly-Pro-Gln-Gly#Ile-Phe-Gly-Gln | 130 | 510 | 369 | 140 | 390 | 380 |
| Gly-Pro-Gln-Gly#Ile-Trp-Gly-Gln | 280 | 930 | 840 | 330 | 140 | 310 |
| Gly-Pro-Gln-Gly#Leu-Ala-Gly-Gln | 110 | 180 | 130 | 300 | 80 | 88 |
| Gly-Pro-Gln-Gly#Phe-Ala-Gly-Gln | 140 | 46 | 20 | 74 | 24 | 55 |
| Gly-Pro-Gln-Gly#Pro-Ala-Gly-Gln | <0.5 | <0.5 | <0.5 | <5.0 | <5.0 | <5.0 |
| Gly-Pro-Gln-Gly#Ser-Ala-Gly-Gln | 45 | 1.6 | 5.9 | 5.5 | <5.0 | 15 |
| Gly-Pro-Gln-Gly#Trp-Ala-Gly-Gln | 120 | 49 | <0.5 | <5.0 | <5.0 | <5.0 |
| Gly-Pro-Gln-Gly#Tyr-Ala-Gly-Gln | 150 | 390 | 50 | 21 | 96 | 50 |
| Gly-Pro-Gln-His#Ile-Ala-Gly-Gln | 87 | 50 | 190 |  | 44 | 65 |
